Source: paper PMC10425210 (The Journal of Clinical Investigation, 2023)

Experiment: Plasma pharmacokinetics after a single subcutaneous administration of LEN
Assay type: in vivo, rhesus macaques
Conditions: for concentration at 8 week: week 8 post dose; for concentration at 9 week: week 9 post dose; for concentration at 10 week: week 10 post dose; for concentration at 11 week: week 11 post dose; for concentration at 12 week: week 12 post dose; for concentration at 14 week: week 14 post dose
Method: All animals were housed at Bioqual Inc. For the in vivo SHIV stock titration study, 8 untreated outbred Indian-origin male rhesus macaques aged 3–5 years were challenged intrarectally per round for a total of 5 challenge rounds using increasing virus doses ranging from 0.625 to 100 TCID50, with the 100 TCID50 round performed twice for increased resolution (Supplemental Table 2). Plasma viral load was measured to confirm the infection status. […] Injection sites were monitored daily by veterinary staff for 2 weeks and then weekly through the end of study. On week 7, 11 animals were challenged by the intrarectal route with 1 mL RPMI containing 100 TCID50 SHIV-SF162P3. Whole blood was collected and processed into plasma and PBMCs as necessary for the assessment of routine hematology and clinical chemistry, viral load analysis, serology, and the bioanalysis of drug levels. Animals were considered protected if they remained SHIV negative by a plasma PCR assay and seronegative by enzyme immunoassay through week 10 after challenge.
Rhesus plasma samples were stored frozen at –80°C and thawed, and a 50 μL aliquot of each was treated with 200 μL acetonitrile containing an internal standard. After precipitation of the protein component, a 100 μL aliquot of the supernatant was transferred to a clean 96-well plate and mixed with 200 μL water. A 10 μL aliquot of the above solution was then injected into a Q-Exactive high resolution mass spectrometer from Thermo Electron with electrospray ionization in positive mode.

[1] = male, Indian-origin (outbred), rhesus monkey, plasma, subcutaneous, 5 mg/kg, Plasma LEN (Mean), 5 mg/kg sc
[2] = male, Indian-origin (outbred), rhesus monkey, plasma, subcutaneous, 10 mg/kg, Plasma LEN (Mean), 10 mg/kg sc
[3] = male, Indian-origin (outbred), rhesus monkey, plasma, subcutaneous, 20 mg/kg, Plasma LEN (Mean), 20 mg/kg sc

Q: Which results are given for `CC(C)(C#Cc1ccc(-c2ccc(Cl)c3c(NS(C)(=O)=O)nn(CC(F)(F)F)c23)c([C@H](Cc2cc(F)cc(F)c2)NC(=O)Cn2nc(C(F)(F)F)c3c2C(F)(F)[C@@H]2C[C@H]32)n1)S(C)(=O)=O` [LEN, Lenacapavir]?
A: dose proportionality of exposure (5 to 20 mg/kg sc): dose-proportional increase; dose proportionality of exposure (50 to 75 mg/kg sc): more than dose-proportional increase; Plasma LEN (animal BM55, 20 mg/kg, week 0 post challenge): 38.60 nM; Plasma LEN (animal BM55, 20 mg/kg, week 6 post challenge): 10.80 nM; Plasma LEN (animal BM55, 20 mg/kg, week 7 post challenge): 7.10 nM; Plasma LEN (animal BM55, 20 mg/kg, week 8 post challenge): 5.30 nM; Plasma LEN (animal BM55, 20 mg/kg, week 9 post challenge): 3.80 nM; Plasma LEN (animal BM55, 20 mg/kg, week 10 post challenge): 4.10 nM; Plasma LEN (animal BN33, 20 mg/kg, week 0 post challenge): 18.60 nM; Plasma LEN (animal BN33, 20 mg/kg, week 6 post challenge): 9.10 nM; Plasma LEN (animal BN33, 20 mg/kg, week 7 post challenge): 5.71 nM; Plasma LEN (animal BN33, 20 mg/kg, week 8 post challenge): 6.90 nM; Plasma LEN (animal BN33, 20 mg/kg, week 9 post challenge): 4.70 nM; Plasma LEN (animal BN33, 20 mg/kg, week 10 post challenge): 4.50 nM; Plasma LEN (animal CO92, 50 mg/kg, week 0 post challenge): 50.08 nM; Plasma LEN (animal CO92, 50 mg/kg, week 1 post challenge): 62.65 nM; Plasma LEN (animal CO92, 50 mg/kg, week 2 post challenge): 47.76 nM; Plasma LEN (animal CO92, 50 mg/kg, week 3 post challenge): 52.01 nM; Plasma LEN (animal CO92, 50 mg/kg, week 4 post challenge): 67.23 nM; Plasma LEN (animal CO92, 50 mg/kg, week 5 post challenge): 66.62 nM; Plasma LEN (animal CO92, 50 mg/kg, week 6 post challenge): 66.12 nM; Plasma LEN (animal CO92, 50 mg/kg, week 7 post challenge): 36.27 nM; Plasma LEN (animal CO92, 50 mg/kg, week 8 post challenge): 42.04 nM; Plasma LEN (animal CO92, 50 mg/kg, week 9 post challenge): 52.87 nM; Plasma LEN (animal CO92, 50 mg/kg, week 10 post challenge): 56.39 nM; Plasma LEN (animal CO92, 50 mg/kg, week 11 post challenge): 43.33 nM; Plasma LEN (animal CO92, 50 mg/kg, week 12 post challenge): 27.05 nM; Plasma LEN (animal CO92, 50 mg/kg, week 13 post challenge): 18.50 nM; Plasma LEN (animal CO92, 50 mg/kg, week 14 post challenge): 13.10 nM; Plasma LEN (animal CO92, 50 mg/kg, week 15 post challenge): 18.82 nM; Plasma LEN (animal CO92, 50 mg/kg, week 16 post challenge): 13.67 nM; Plasma LEN (animal CP67, 75 mg/kg, week 8 post challenge): 37.09 nM; Plasma LEN (animal CP67, 75 mg/kg, week 9 post challenge): 36.45 nM; Plasma LEN (animal CP67, 75 mg/kg, week 10 post challenge): 23.67 nM; Plasma LEN (animal CP67, 75 mg/kg, week 11 post challenge): 20.33 nM; Plasma LEN (animal V229, 20 mg/kg, week 0 post challenge): 37.30 nM; Plasma LEN (animal V229, 20 mg/kg, week 6 post challenge): 15.10 nM; Plasma LEN (animal V229, 20 mg/kg, week 7 post challenge): 8.33 nM; Plasma LEN (animal V229, 20 mg/kg, week 8 post challenge): 6.00 nM; Plasma LEN (animal V229, 20 mg/kg, week 9 post challenge): 3.70 nM; Plasma LEN (animal V229, 20 mg/kg, week 10 post challenge): 4.60 nM; Plasma LEN (animal V411, 50 mg/kg, week 0 post challenge): 143.42 nM; Plasma LEN (animal V411, 50 mg/kg, week 1 post challenge): 64.99 nM; Plasma LEN (animal V411, 50 mg/kg, week 2 post challenge): 55.43 nM; Plasma LEN (animal V411, 50 mg/kg, week 3 post challenge): 47.46 nM; Plasma LEN (animal V411, 50 mg/kg, week 4 post challenge): 28.61 nM; Plasma LEN (animal V411, 50 mg/kg, week 5 post challenge): 19.46 nM; Plasma LEN (animal V411, 50 mg/kg, week 6 post challenge): 17.89 nM; Plasma LEN (animal V411, 50 mg/kg, week 7 post challenge): 11.22 nM; Plasma LEN (animal V411, 50 mg/kg, week 8 post challenge): 7.46 nM; Plasma LEN (animal V411, 50 mg/kg, week 9 post challenge): 7.40 nM; Plasma LEN (animal V411, 50 mg/kg, week 10 post challenge): 5.89 nM; Plasma LEN (animal V411, 50 mg/kg, week 11 post challenge): 3.67 nM; Plasma LEN (animal V411, 50 mg/kg, week 12 post challenge): 2.40 nM; Plasma LEN (animal V411, 50 mg/kg, week 13 post challenge): 3.03 nM; Plasma LEN (animal V411, 50 mg/kg, week 14 post challenge): 2.52 nM; Plasma LEN (animal V411, 50 mg/kg, week 15 post challenge): 2.21 nM; Plasma LEN (animal V411, 50 mg/kg, week 16 post challenge): 1.79 nM; Plasma LEN (animal V417, 75 mg/kg, week 8 post challenge): 23.00 nM; Plasma LEN (animal V417, 75 mg/kg, week 9 post challenge): 32.44 nM; Plasma LEN (animal V417, 75 mg/kg, week 10 post challenge): 33.77 nM; Plasma LEN (animal V426, 75 mg/kg, week 8 post challenge): 36.31 nM; Plasma LEN (animal V426, 75 mg/kg, week 9 post challenge): 52.45 nM; Plasma LEN (animal V426, 75 mg/kg, week 10 post challenge): 38.56 nM; Plasma LEN (animal V426, 75 mg/kg, week 11 post challenge): 38.65 nM; Plasma LEN (animal V430, 50 mg/kg, week 0 post challenge): 117.17 nM; Plasma LEN (animal V430, 50 mg/kg, week 1 post challenge): 47.07 nM; Plasma LEN (animal V430, 50 mg/kg, week 2 post challenge): 55.06 nM; Plasma LEN (animal V430, 50 mg/kg, week 3 post challenge): 44.89 nM; Plasma LEN (animal V430, 50 mg/kg, week 4 post challenge): 40.12 nM; Plasma LEN (animal V430, 50 mg/kg, week 5 post challenge): 30.18 nM; Plasma LEN (animal V430, 50 mg/kg, week 6 post challenge): 23.37 nM; Plasma LEN (animal V430, 50 mg/kg, week 7 post challenge): 9.85 nM; Plasma LEN (animal V430, 50 mg/kg, week 8 post challenge): 6.90 nM; Plasma LEN (animal V430, 50 mg/kg, week 9 post challenge): 7.41 nM; Plasma LEN (animal V430, 50 mg/kg, week 10 post challenge): 7.29 nM; Plasma LEN (animal V430, 50 mg/kg, week 11 post challenge): 3.38 nM; Plasma LEN (animal V430, 50 mg/kg, week 12 post challenge): 2.44 nM; Plasma LEN (animal V430, 50 mg/kg, week 13 post challenge): 1.41 nM; Plasma LEN (animal V430, 50 mg/kg, week 14 post challenge): 1.81 nM; Plasma LEN (animal V430, 50 mg/kg, week 15 post challenge): 1.32 nM; Plasma LEN (animal V435, 75 mg/kg, week 7 post challenge): 3.85 nM; Plasma LEN (animal V435, 75 mg/kg, week 8 post challenge): 2.05 nM; Plasma LEN (animal V435, 75 mg/kg, week 9 post challenge): 2.10 nM; Plasma LEN (animal V435, 75 mg/kg, week 10 post challenge): 1.92 nM; Plasma LEN (animal V470, 50 mg/kg, week 0 post challenge): 100.49 nM; Plasma LEN (animal V470, 50 mg/kg, week 1 post challenge): 40.04 nM; Plasma LEN (animal V470, 50 mg/kg, week 2 post challenge): 48.42 nM; Plasma LEN (animal V470, 50 mg/kg, week 3 post challenge): 50.54 nM; Plasma LEN (animal V470, 50 mg/kg, week 4 post challenge): 46.19 nM; Plasma LEN (animal V470, 50 mg/kg, week 5 post challenge): 35.17 nM; Plasma LEN (animal V470, 50 mg/kg, week 6 post challenge): 44.02 nM; Plasma LEN (animal V470, 50 mg/kg, week 7 post challenge): 26.59 nM; Plasma LEN (animal V470, 50 mg/kg, week 8 post challenge): 17.23 nM; Plasma LEN (animal V470, 50 mg/kg, week 9 post challenge): 20.99 nM; Plasma LEN (animal V470, 50 mg/kg, week 10 post challenge): 19.02 nM; Plasma LEN (animal V470, 50 mg/kg, week 11 post challenge): 17.74 nM; Plasma LEN (animal V470, 50 mg/kg, week 12 post challenge): 12.55 nM; Plasma LEN (animal V470, 50 mg/kg, week 13 post challenge): 11.15 nM; Plasma LEN (animal V470, 50 mg/kg, week 14 post challenge): 8.52 nM; Plasma LEN (animal V470, 50 mg/kg, week 15 post challenge): 6.58 nM; Plasma LEN (animal V470, 50 mg/kg, week 16 post challenge): 6.37 nM; duration of plasma exposures above the paEC95 (8.8 nM) (eleven animals of the 3 highest dosing groups): over 10 weeks; concentration at 8 week [1]: 4.42 nM; concentration at 9 week [1]: 5.79 nM; concentration at 10 week [1]: 3.41 nM; concentration at 11 week [1]: 4.16 nM; concentration at 12 week [1]: 1.87 nM; concentration at 14 week [1]: 1.45 nM; concentration at 8 week [2]: 9.6 nM; concentration at 9 week [2]: 10.1 nM; concentration at 10 week [2]: 8.41 nM; concentration at 11 week [2]: 5.96 nM; concentration at 12 week [2]: 5.13 nM; concentration at 14 week [2]: 3.63 nM; concentration at 8 week [3]: 26.1 nM; concentration at 9 week [3]: 28 nM; concentration at 10 week [3]: 27.9 nM; concentration at 11 week [3]: 15 nM; concentration at 12 week [3]: 9.8 nM; concentration at 13 week (male, Indian-origin (outbred), rhesus monkey, plasma, subcutaneous, 20 mg/kg, Plasma LEN (Mean), 20 mg/kg sc, week 13 post dose): 11.7 nM; concentration at 14 week [3]: 7.07 nM; concentration at 15 week (male, Indian-origin (outbred), rhesus monkey, plasma, subcutaneous, 20 mg/kg, Plasma LEN (Mean), 20 mg/kg sc, week 15 post dose): 6.07 nM; concentration at 16 week (male, Indian-origin (outbred), rhesus monkey, plasma, subcutaneous, 20 mg/kg, Plasma LEN (Mean), 20 mg/kg sc, week 16 post dose): 4.07 nM; concentration at 17 week (male, Indian-origin (outbred), rhesus monkey, plasma, subcutaneous, 20 mg/kg, Plasma LEN (Mean), 20 mg/kg sc, week 17 post dose): 4.4 nM; concentration at 8 week (male, Indian-origin (outbred), rhesus monkey, plasma, subcutaneous, 50 mg/kg, Plasma LEN (Mean), 50 mg/kg sc): 53.7 nM
